Test results as given in patent publication US8785488B2 (Exelixis Patent Company LLC, priority 2009, dated 2014).

Biological target: T1, human TGR5 (h-TGR5) (Homo sapiens, UniProt Q8TDU6)
T1 construct: expressed in transfected cells
T1 sequence (Q8TDU6 1-330): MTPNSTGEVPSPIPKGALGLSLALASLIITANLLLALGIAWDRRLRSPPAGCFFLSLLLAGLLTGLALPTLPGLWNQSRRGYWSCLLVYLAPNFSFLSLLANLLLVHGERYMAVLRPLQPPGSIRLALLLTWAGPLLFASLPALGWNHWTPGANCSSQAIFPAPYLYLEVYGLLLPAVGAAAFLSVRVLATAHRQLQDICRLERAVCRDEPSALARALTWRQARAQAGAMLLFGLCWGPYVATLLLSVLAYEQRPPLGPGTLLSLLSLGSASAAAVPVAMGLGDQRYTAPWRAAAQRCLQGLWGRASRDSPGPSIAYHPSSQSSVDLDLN
Assay: TGR5/CRE-Luciferiase Assay (HEK 293 hTGR5/CRE-Luc cells)
Format: cell-based
Details: h-TGR5 CRE-Luc EC50, Table 1; read-out: CRE-Luc (EC50)
Outline: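 HEK293 cells stably carrying hTGR5 and a CRE-luciferase reporter were exposed to serially diluted compounds (diluted in DMEM with 5% DMSO) for 6 h. Cells were then lysed in luciferase buffer, luminescence was read, and EC50 values were derived from dose-response curves.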

Structure (SMILES) | EC50 [nM]
CC(C)(c1ccc(Cl)c(Cl)c1)c1cnc(OCC2CCN(c3nnn[nH]3)CC2)n1-c1ccc(F)cc1 [4-[({5-[1-(3,4-dichlorophenyl)-1-methylethyl]-1-(4-fluorophenyl)-1H-imidazol-2-yl}oxy)methyl]-1-(1H-tetrazol-5-yl)piperidine] | 1000 to 10000
CC(C)(c1ccc(Cl)c(Cl)c1)c1cnc(SCC2CCN(c3ccc(F)cc3)CC2)n1-c1ccc(F)cc1 [4-[({5-[1-(3,4-dichlorophenyl)-1-methylethyl]-1-(4-fluorophenyl)-1H-imidazol-2-yl}thio)methyl]-1-(4-fluorophenyl)piperidine] | 1000 to 10000
CC(C)(c1ccc(Cl)c(Cl)c1)c1cnc(SCc2ccc(C(N)=O)c(F)c2)n1-c1ccc(F)cc1 [4-[({5-[1-(3,4-dichlorophenyl)-1-methylethyl]-1-(4-fluorophenyl)-1H-imidazol-2-yl}thio)methyl]-2-fluorobenzamide] | 100 to 1000
CC(C)(c1ccc(Cl)c(Cl)c1)c1cnc(SCc2ccc(C(=O)O)c(F)c2)n1-c1ccc(F)cc1 [4-[({5-[1-(3,4-dichlorophenyl)-1-methylethyl]-1-(4-fluorophenyl)-1H-imidazol-2-yl}thio)methyl]-2-fluorobenzoic acid] | 100 to 1000
CC(C)(c1ccc(Cl)c(Cl)c1)c1cnc(SCc2c(F)cc(C#N)cc2F)n1-c1ccc(F)cc1 [4-[({5-[1-(3,4-dichlorophenyl)-1-methylethyl]-1-(4-fluorophenyl)-1H-imidazol-2-yl}thio)methyl]-3,5-difluorobenzonitrile] | < 100
CC(C)(c1ccc(Cl)c(Cl)c1)c1cnc(SCc2ccc(C(=O)NCC(F)(F)F)cc2F)n1-c1ccc(F)cc1 [4-[({5-[1-(3,4-dichlorophenyl)-1-methylethyl]-1-(4-fluorophenyl)-1H-imidazol-2-yl}thio)methyl]-3-fluoro-N-(2,2,2-trifluoroethyl)benzamide] | 100 to 1000
CC(C)(c1ccc(Cl)c(Cl)c1)c1cnc(SCc2ccc(C(=O)NCCN3CCOCC3)cc2F)n1-c1ccc(F)cc1 [4-[({5-[1-(3,4-dichlorophenyl)-1-methylethyl]-1-(4-fluorophenyl)-1H-imidazol-2-yl}thio)methyl]-3-fluoro-N-(2-morpholin-4-ylethyl)benzamide] | 100 to 1000
COCCNC(=O)c1ccc(CSc2ncc(C(C)(C)c3ccc(Cl)c(Cl)c3)n2-c2ccc(F)cc2)c(F)c1 [4-[({5-[1-(3,4-dichlorophenyl)-1-methylethyl]-1-(4-fluorophenyl)-1H-imidazol-2-yl}thio)methyl]-3-fluoro-N-[2-(methyloxy)ethyl]benzamide] | 100 to 1000
CC(C)(c1ccc(Cl)c(Cl)c1)c1cnc(SCc2ccc(C(N)=O)cc2F)n1-c1ccc(F)cc1 [4-[({5-[1-(3,4-dichlorophenyl)-1-methylethyl]-1-(4-fluorophenyl)-1H-imidazol-2-yl}thio)methyl]-3-fluorobenzamide] | 100 to 1000
CC(C)(c1ccc(Cl)c(Cl)c1)c1cnc(SCC2CCNCC2)n1-c1ccc(F)cc1 [4-[({5-[1-(3,4-dichlorophenyl)-1-methylethyl]-1-(4-fluorophenyl)-1H-imidazol-2-yl}thio)methyl]piperidine] | 1000 to 10000
CC(C)(c1ccc(Cl)c(Cl)c1)c1cnc(SCc2ccc(S(N)(=O)=O)c(F)c2)n1-c1ccc(F)cc1 [4-[({5-[1-(3,4-dichlorophenyl)-1-methylethyl]-1-(4-fluorophenyl)-1H-imidazol-2-yl}thio)methyl}-2-fluorobenzenesulfonamide] | 100 to 1000
CC(C)(c1ccc(Cl)c(Cl)c1)c1cnc(SCc2c(F)cc(C(=O)O)cc2F)n1-c1ccc(F)c(CO)c1 [4-[({5-[1-(3,4-dichlorophenyl)-1-methylethyl]-1-[4-fluoro-3-(hydroxymethyl)phenyl]-1H-imidazol-2-yl}thio)methyl]-3,5-difluorobenzoic acid] | 100 to 1000
CC(C)NC(=O)N1CCC(CSc2ncc(C(C)(C)c3ccc(F)c(F)c3)n2-c2ccc(F)cc2)CC1 [4-[({5-[1-(3,4-difluorophenyl)-1-methylethyl]-1-(4-fIuorophenyl)-1H-imidazol-2-yl}thio)methyl]-N-(1-methylethyl)piperidine-1-carboxamide] | 100 to 1000
CC(C)(c1ccc(F)c(F)c1)c1cnc(SCc2ccc(C(=O)O)cc2F)n1-c1ccc(F)cc1 [4-[({5-[1-(3,4-difluorophenyl)-1-methylethyl]-1-(4-fluorophenyl)-1H-imidazol-2-yl}thio)methyl]-3-fluorobenzoic acid] | 100 to 1000
CC(C)(c1ccc(Cl)c(O)c1)c1cnc(SCc2c(F)cc(C(=O)O)cc2F)n1-c1ccc(F)cc1 [4-[({5-[1-(4-chloro-3-hydroxyphenyl)-1-methylethyl]-1-(4-fluorophenyl)-1H-imidazol-2-yl}thio)methyl]-3,5-difluorobenzoic acid] | 100 to 1000
CC(C)(c1ccc(Cl)c(Cl)c1)c1c(Cl)nc(SCc2c(F)cccc2Cl)n1-c1ccc(F)cc1 [4-chloro-2-{[(2-chloro-6-fluorophenyl)methyl]thio}-5-[1-(3,4-dichlorophenyl)-1-methylethyl]-1-(4-fluorophenyl)-1H-imidazole] | 100 to 1000
CC(C)(c1ccc(Cl)c(Cl)c1)c1cnc(SCc2cc(C(N)=O)ccc2Cl)n1-c1ccc(F)cc1 [4-chloro-3-[({5-[1-(3,4-dichlorophenyl)-1-methylethyl]-1-(4-fluorophenyl)-1H-imidazol-2-yl}thio)methyl]benzamide] | 100 to 1000
CC(C)(c1ccc(Cl)c(Cl)c1)c1cnc(SCc2cc(S(N)(=O)=O)ccc2Cl)n1-c1ccc(F)cc1 [4-chloro-3-[({5-[1-(3,4-dichlorophenyl)-1-methylethyl]-1-(4-fluorophenyl)-1H-imidazol-2-yl}thio)methyl]benzenesulfonamide] | 100 to 1000
CC(C)(c1ccc(Cl)c(Cl)c1)c1cnc(SCc2cc(C#N)ccc2Cl)n1-c1ccc(F)cc1 [4-chloro-3-[({5-[1-(3,4-dichlorophenyl)-1-methylethyl]-1-(4-fluorophenyl)-1H-imidazol-2-yl}thio)methyl]benzonitrile] | < 100
CNS(=O)(=O)c1ccc(C(C)(C)c2cnc(SCc3ccc(F)cc3Cl)n2-c2ccc(F)cc2)cc1 [4-{1-[2-{[(2-chloro-4-fluorophenyl)methyl]thio}-1-(4-fluorophenyl)-1H-imidazol-5-yl]-1-methylethyl}-N-methylbenzenesulfonamide] | 100 to 1000
CC(C)(c1ccc(O)c(O)c1)c1cnc(SCc2ccc(F)cc2Cl)n1-c1ccc(F)cc1 [4-{1-[2-{[(2-chloro-4-fluorophenyl)methyl]thio}-1-(4-fluorophenyl)-1H-imidazol-5-yl]-1-methylethyl}benzene-1,2-diol] | < 100
CC(C)(c1ccc(Cl)c(OCCN2CCOCC2)c1)c1cnc(SCc2c(F)cccc2Cl)n1-c1ccc(F)cc1 [4-{2-[(2-chloro-5-{1-[2-{[(2-chloro-6-fluorophenyl)methyl]thio}-1-(4-fluorophenyl)-1H-imidazol-5-yl]-1-methylethyl}phenyl)oxy]ethyl}morpholine] | 100 to 1000
CC(C)(c1ccc(Cl)c(Cl)c1)c1cnc(C2=CCN(S(C)(=O)=O)CC2)n1-c1ccc(F)cc1 [4-{5-[1-(3,4-dichlorophenyl)-1-methylethyl]-1-(4-fluorophenyl)-1H-imidazol-2-yl}-1-(methylsulfonyl)-1,2,3,6-tetrahydropyridine] | 1000 to 10000
CC(C)(c1ccc(Cl)c(Cl)c1)c1cnc(C2CCN(S(C)(=O)=O)CC2)n1-c1ccc(F)cc1 [4-{5-[1-(3,4-dichlorophenyl)-1-methylethyl]-1-(4-fluorophenyl)-1H-imidazol-2-yl}-1-(methylsulfonyl)piperidine] | 1000 to 10000
CC(C)(c1ccc(Cl)c(Cl)c1)c1cnc(C2CCN(C(=O)NN3CCCC3)CC2)n1-c1ccc(F)cc1 [4-{5-[1-(3,4-dichlorophenyl)-1-methylethyl]-1-(4-fluorophenyl)-1H-imidazol-2-yl}-N-pyrrolidin-1-ylpiperidine-1-carboxamide] | 1000 to 10000
COc1ccc(C(C)(C)c2cnc(C(=O)N3CCOCC3)n2-c2ccc(F)cc2)cc1OC [4-{[5-{1-[3,4-bis(methyloxy)phenyl]-1-methylethyl}-1-(4-fluorophenyl)-1H-imidazol-2-yl]carbonyl}morpholine] | 1000 to 10000
CC(C)(c1ccc(Cl)c(Cl)c1)c1nc(CSc2ccc(F)cc2Cl)cn1-c1ccc(F)cc1 [4-{[(2-chloro-4-fluorophenyl)thio]methyl}-2-[1-(3,4-dichlorophenyl)-1-methylethyl]-1-(4-fluorophenyl)-1H-imidazole] | 1000 to 10000
CC(C)(c1ccc(Cl)c(Cl)c1)c1cnc(SCc2ccc(F)cc2Cl)n1-c1ccc(F)c(C(N)=O)c1 [5-(2-{[(2-chloro-4-fluorophenyl)methyl]thio}-5-[1-(3,4-dichlorophenyl)-1-methylethyl]-1H-imidazol-1-yl)-2-fluorobenzamide] | 100 to 1000
CC(C)(c1ccc(Cl)c(Cl)c1)c1cnc(SCc2ccc(F)cc2Cl)n1-c1ccc(F)c(C#N)c1 [5-(2-{[(2-chloro-4-fluorophenyl)methyl]thio}-5-[1-(3,4-dichlorophenyl)-1-methylethyl]-1H-imidazol-1-yl)-2-fluorobenzonitrile] | 100 to 1000
COc1c(Cl)cc(C(C)(C)c2cnc(SCc3ccc(F)c(S(N)(=O)=O)c3)n2-c2ccc(F)cc2)cc1Cl [5-({[5-{1-[3,5-dichloro-4-(methyloxy)phenyl]-1-methylethyl}-1-(4-fluorophenyl)-1H-imidazol-2-yl]thio}methyl)-2-fluorobenzenesulfonamide] | < 100
